Test results taken from US7241784B2, “Carboxylic acid derivative and a pharmaceutical composition containing the derivative as active ingredient” (Ono Pharmaceutical Co., Ltd., priority 1998, dated 2007).

Assays:
human PPARα = target: T1, human PPARα (Homo sapiens, UniProt Q07869); test: Luciferase assay using human PPARα (Gal4-PPARα LBD chimeric receptor, CV-1 cells); assay type: cell-based; conditions: PPARα agonistic activity, compound 10 μM, luciferase activity of carbacyclin (10 μM) defined as 1.0, 42 hours
T1 construct: expressed in transfected cells; host or cells: CV-1 cells
T1 sequence (Q07869 167-468): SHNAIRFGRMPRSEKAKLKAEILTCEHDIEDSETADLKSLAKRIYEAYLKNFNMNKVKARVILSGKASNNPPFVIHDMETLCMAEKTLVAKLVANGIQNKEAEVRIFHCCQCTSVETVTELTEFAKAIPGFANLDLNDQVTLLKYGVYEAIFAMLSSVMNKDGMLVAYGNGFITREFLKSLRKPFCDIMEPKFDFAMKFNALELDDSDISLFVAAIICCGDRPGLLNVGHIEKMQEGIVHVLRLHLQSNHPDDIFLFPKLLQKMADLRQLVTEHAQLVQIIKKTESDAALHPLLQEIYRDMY

human PPARγ = target: T2, human PPARγ (Homo sapiens, UniProt P37231); test: Luciferase assay using human PPARγ (Gal4-PPARγ LBD chimeric receptor, CV-1 cells); assay type: cell-based; conditions: PPARγ agonistic activity, compound 10 μM, luciferase activity of troglitazone (10 μM) defined as 1.0, 42 hours
T2 construct: expressed in transfected cells; host or cells: CV-1 cells
T2 sequence (P37231 204-505): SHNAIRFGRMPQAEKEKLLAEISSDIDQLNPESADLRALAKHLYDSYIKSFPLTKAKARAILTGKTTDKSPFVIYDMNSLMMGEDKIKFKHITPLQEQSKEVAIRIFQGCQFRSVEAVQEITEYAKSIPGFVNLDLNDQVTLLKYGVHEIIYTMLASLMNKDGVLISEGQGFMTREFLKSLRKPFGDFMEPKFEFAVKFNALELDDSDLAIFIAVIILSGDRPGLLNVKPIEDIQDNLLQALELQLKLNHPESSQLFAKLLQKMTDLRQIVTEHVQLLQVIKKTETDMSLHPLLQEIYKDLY

KKAy/Ta mice = test: Hypoglycemic and hypolipidemic effects in KKAy/Ta mice; assay type: in vivo; conditions: male KKAy/Ta mice, food mixture containing 0.03% (w/w) compound for two days, 5 mice per group; for TG level on Day 3: control 523 ± 144; for glycemic level on Day 3: control 638 ± 63
Excerpt: Hypoglycemic and Hypolipidemic Effects
Male, 7-weeks old KKAy/Ta mice weighed from 35 to 40 g (five mice per group) were pre-breaded for approximately one week and acclimatized for three days on milled diet. On the first day of the experiment (Day 0), mice were divided into some groups according to weight, plasma glucose and triglyceride (TG) levels to minimize the differences among groups. From the next day for two days they were given compounds by food mixture containing 0.03% (w/w) of the compound of the present invention or by milled diet only. At 13:00 of the third day, blood samples were collected to measure glucose and TG levels. Additionally, there was no significant difference in the food intake between control group (milled diet only) and compounds-treated group (milled diet containing 0.03% compounds).

SD rats = test: Hypocholesterolemic and hypolipidemic effects in SD rats given hypercholesterolemic food; assay type: in vivo; conditions: male SD rats, oral administration in 0.5% CMC, then hypercholesterolemic food, blood at 9:00 of the next day, 5 rats per group; for TC level: control 154 ± 8; for TG level: control 158 ± 19; for NEFA levle: control 537 ± 69
Excerpt: Hypocholesterolemic and Hypolipidemic Effects
Male, six-weeks old SD rats (five rats per group) were left to take milled diet and water ad libitum and were acclimatized for 1 week.
At 9:00 on the first day of the experiment (Day 0), blood sampling was done from tail vein. The rats were divided into some groups according to body weight, triglyceride (TG), non-esterified fatty acid (NEFA) and total cholesterol (TC) levels to minimize differences of the parameters among the groups. At 17:00 of the day, the compound of the present invention dissolved in 0.5% aqueous solution of carboxymethylcellulose (CMC) was orally administered, and thereafter, with hypercholesterolemic food (5.5% peanut oil, 1.5% cholesterol and 0.5% cholic acid were mixed with milled CRF-1 diet, Charles River Inc.) was given to the rats.
At 9:00 of the next day, blood sampling was done from tail vein. The lipid levels in blood (TG, NEFA and TC levels) after administration of the compounds of the present invention were measured. There was no significant difference of the food intake between the control group (provided only 0.5% CMC) and the group treated with the compounds of the present invention.

Structure (SMILES) | Relative Activity to a positive control compound (carbacyclin = 1) (human PPARα) | Relative Activity to a positive control compound (troglitazone = 1) (human PPARγ) | TG level on Day 3 (KKAy/Ta mice) [mg/dL] | glycemic level on Day 3 (KKAy/Ta mice) [mg/dL] | TC level (SD rats) [mg/dL] | TG level (SD rats) [mg/dL] | NEFA levle (SD rats) [μEq/l]
Cc1oc(-c2ccccc2)nc1CCOCC#CCSCC(=O)O [Example 5 (2), 2-(4-(2-(5-methyl-2-phenyloxazol-4-yl)ethoxy)-2-butynylthio)acetic acid] | 2.9 | 2.6 |  |  |  |  | 
Cc1oc(-c2ccccc2)nc1CCOCCCCSCC(=O)O [Example 5 (8), 2-(4-(2-(5-methyl-2-phenyloxazol-4-yl)ethoxy)butylthio)acetic acid] | 2.2 | 2.3 |  |  |  |  | 
Cc1ccc(-c2nc(CCOCC#CCSCC(=O)O)c(C)o2)cc1 [Example 5 (10), 2-(4-(2-(5-methyl-2-(4-methylphenyl)oxazol-4-yl)ethoxy)-2-butynylthio)acetic acid] | 1.5 | 2.7 | 111 ± 38 | 339 ± 74 | 88 ± 6 | 95 ± 17 | 334 ± 55
Cc1oc(-c2ccc3c(c2)OCO3)nc1CCOCC#CCSCC(=O)O [Example 5 (11), 2-(4-(2-(5-methyl-2-(1,3-dioxaindan-5-yl)oxazol-4-yl)ethoxy)-2-butynylthio)acetic acid] | 1.7 | 2.3 | 140 ± 75 | 306 ± 72 | 91 ± 6 | 90 ± 14 | 227 ± 17
